Earlier results as cited in patent US10561746B2, “Gel formulations for guiding radiotherapy” (DANMARKS TEKNISKE UNIVERSITET, priority 2013, dated 2020).

For H-(FEFEFKFK)2-OH [FEK16], the “concentration at which self-assembled hydrogels form” value (in the presence of mM concentrations of NaCl, KCl, and CaCl2) is listed as > 10000 µg/mL and the “solubility in pure H2O” value (pure H2O) is listed as “highly soluble”.
